The source made the active and inactive calls. The rule behind the calls is not given here.
What was measured:
[1] = tested on: MCF7; test: Cytotoxicity against human MCF7 cells by MTT assay; assay type: functional, cell-based
[2] = tested on: HeLa; test: Cytotoxicity against human HeLa cells by MTT assay; assay type: functional, cell-based
[3] = tested on: A549; test: Cytotoxicity against human A549 cells by MTT assay
[4] = tested on: L929; test: Cytotoxicity against mouse L929 cells by MTT assay
[5] = Selectivity ratio of IC50 for mouse L929 cells to IC50 for human MCF7 cells; assay type: toxicity; details: L929 cells versus MCF7 cells, read-out: Ratio IC50
[6] = Selectivity ratio of IC50 for mouse L929 cells to IC50 for human HeLa cells; assay type: toxicity; details: L929 cells versus HeLa cells, read-out: Ratio IC50
[7] = Selectivity ratio of IC50 for mouse L929 cells to IC50 for human A549 cells; assay type: toxicity; details: L929 cells versus A549 cells, read-out: Ratio IC50
[8] = tested on: MCF7; test: Induction of apoptosis in human MCF7 cells assessed as viable cells at 0.02 uM after 48 hrs by Annexin V/PI staining based flow cytometric analysis (reference value: 93.7 %); assay type: functional; details: read-out: Activity
[9] = tested on: MCF7; test: Induction of apoptosis in human MCF7 cells assessed as early apoptotic cells at 0.02 uM after 48 hrs by Annexin V/PI staining based flow cytometric analysis (reference value: 5.05 %); assay type: functional
[10] = tested on: MCF7; test: Induction of apoptosis in human MCF7 cells assessed as late apoptotic cells at 0.02 uM after 48 hrs by Annexin V/PI staining based flow cytometric analysis (reference value: 1.23 %); assay type: functional
[11] = tested on: MCF7; test: Induction of apoptosis in human MCF7 cells assessed as necrotic cells at 0.02 uM after 48 hrs by Annexin V/PI staining based flow cytometric analysis (reference value: 0.017 %); assay type: functional
[12] = tested on: MCF7; test: Induction of apoptosis in human MCF7 cells assessed as viable cells at 0.1 uM after 48 hrs by Annexin V/PI staining based flow cytometric analysis (reference value: 93.7 %); assay type: functional; details: read-out: Activity
[13] = tested on: MCF7; test: Induction of apoptosis in human MCF7 cells assessed as early apoptotic cells at 0.1 uM after 48 hrs by Annexin V/PI staining based flow cytometric analysis (reference value: 5.05 %); assay type: functional
[14] = tested on: MCF7; test: Induction of apoptosis in human MCF7 cells assessed as late apoptotic cells at 0.1 uM after 48 hrs by Annexin V/PI staining based flow cytometric analysis (reference value: 1.23 %); assay type: functional
[15] = tested on: MCF7; test: Induction of apoptosis in human MCF7 cells assessed as necrotic cells at 0.1 uM after 48 hrs by Annexin V/PI staining based flow cytometric analysis (reference value: 0.017 %); assay type: functional
[16] = tested on: MCF7; test: Induction of apoptosis in human MCF7 cells assessed as viable cells at 0.2 uM after 48 hrs by Annexin V/PI staining based flow cytometric analysis (reference value: 93.7 %); assay type: functional; details: read-out: Activity
[17] = tested on: MCF7; test: Induction of apoptosis in human MCF7 cells assessed as early apoptotic cells at 0.2 uM after 48 hrs by Annexin V/PI staining based flow cytometric analysis (reference value: 5.05 %); assay type: functional
[18] = tested on: MCF7; test: Induction of apoptosis in human MCF7 cells assessed as late apoptotic cells at 0.2 uM after 48 hrs by Annexin V/PI staining based flow cytometric analysis (reference value: 1.23 %); assay type: functional
[19] = tested on: MCF7; test: Induction of apoptosis in human MCF7 cells assessed as necrotic cells at 0.2 uM after 48 hrs by Annexin V/PI staining based flow cytometric analysis (reference value: 0.017 %); assay type: functional
[20] = tested on: MCF7; test: Induction of cell cycle arrest in human MCF7 cells assessed as accumulation at G0/G1 phase at 0.02 uM after 48 hrs by flow cytometric analysis (reference value: 66.6 %); assay type: functional
[21] = tested on: MCF7; test: Induction of cell cycle arrest in human MCF7 cells assessed as accumulation at S phase at 0.02 uM after 48 hrs by flow cytometric analysis (reference value: 24.4 %); assay type: functional
[22] = tested on: MCF7; test: Induction of cell cycle arrest in human MCF7 cells assessed as accumulation at G2/M phase at 0.02 uM after 48 hrs by flow cytometric analysis (reference value: 8.7 %); assay type: functional
[23] = tested on: MCF7; test: Induction of cell cycle arrest in human MCF7 cells assessed as accumulation at G0/G1 phase at 0.1 uM after 48 hrs by flow cytometric analysis (reference value: 66.6 %); assay type: functional
[24] = tested on: MCF7; test: Induction of cell cycle arrest in human MCF7 cells assessed as accumulation at S phase at 0.1 uM after 48 hrs by flow cytometric analysis (reference value: 24.4 %); assay type: functional
[25] = tested on: MCF7; test: Induction of cell cycle arrest in human MCF7 cells assessed as accumulation at G2/M phase at 0.1 uM after 48 hrs by flow cytometric analysis (reference value: 8.7 %); assay type: functional
[26] = tested on: MCF7; test: Induction of cell cycle arrest in human MCF7 cells assessed as accumulation at G0/G1 phase at 0.2 uM after 48 hrs by flow cytometric analysis (reference value: 66.6 %); assay type: functional
[27] = tested on: MCF7; test: Induction of cell cycle arrest in human MCF7 cells assessed as accumulation at S phase at 0.2 uM after 48 hrs by flow cytometric analysis (reference value: 24.4 %); assay type: functional
[28] = tested on: MCF7; test: Induction of cell cycle arrest in human MCF7 cells assessed as accumulation at G2/M phase at 0.2 uM after 48 hrs by flow cytometric analysis (reference value: 8.7 %); assay type: functional
[29] = tested on: MCF7; test: Induction of apoptosis in human MCF7 cells assessed as increase in cleaved caspase 3 protein expression at 0.02 uM by Western blotting analysis; assay type: functional, cell-based
[30] = tested on: MCF7; test: Induction of apoptosis in human MCF7 cells assessed as inhibition of survivin protein expression at 0.02 to 0.2 uM by Western blotting analysis; assay type: functional, cell-based; details: dose 0.02-0.2 µM

For `Cn1c[n+](CC(=O)c2ccco2)c2c1C(=O)c1ccccc1C2=O`, the IC50 [1] was 1.4 µM, the IC50 [2] was 4.9 µM and the IC50 [3] was 0.1 µM. For the same molecule, the IC50 [4] was 13.6 µM, the selectivity ratio [5] was 9.71 and the selectivity ratio [6] was 2.78. For the same molecule, the selectivity ratio [7] was 136.
With `CC(C)Cn1c[n+](CC(=O)c2ccc(F)cc2)c2c1C(=O)c1ccccc1C2=O` the IC50 [1] was 0.75 µM, the IC50 [2] was 0.41 µM and the IC50 [3] was 0.2 µM. For the same molecule, the IC50 [4] was 16.4 µM, the selectivity ratio [5] was 21.9 and the selectivity ratio [6] was 40. For the same molecule, the selectivity ratio [7] was 82.
With `CC(C)Cn1c[n+](CC(=O)c2ccccc2[N+](=O)[O-])c2c1C(=O)c1ccccc1C2=O` the IC50 [1] was 55.4 µM, the IC50 [2] was 73.6 µM and the IC50 [3] was 35.2 µM. The IC50 [4] was 133 µM, the selectivity ratio [5] was 2.4 and the selectivity ratio [6] was 1.81. It also gave a selectivity ratio [7] of 3.78.
With `CC(C)Cn1c[n+](CC(=O)c2ccc3ccccc3c2)c2c1C(=O)c1ccccc1C2=O` the IC50 [1] was 2.7 µM, the IC50 [2] was 4.3 µM and the IC50 [3] was 1.3 µM. The IC50 [4] was 17.7 µM, the selectivity ratio [5] was 6.56 and the selectivity ratio [6] was 4.12. The selectivity ratio [7] was 13.6.
For `C#CCn1c[n+](CC(=O)c2ccc([N+](=O)[O-])cc2)c2c1C(=O)c1ccccc1C2=O`, the IC50 [1] was 40.9 µM, the IC50 [2] was 17.2 µM and the IC50 [3] was 15.1 µM. It also gave an IC50 [4] of 19 µM, a selectivity ratio [5] of 0.46 and a selectivity ratio [6] of 1.1. The selectivity ratio [7] was 1.26.
`COc1ccc(C(=O)C[n+]2cn(CC(C)C)c3c2C(=O)c2ccccc2C3=O)cc1` showed an IC50 [1] of 0.31 µM, an IC50 [2] of 0.08 µM and an IC50 [3] of 0.19 µM. The IC50 [4] was 2.3 µM, the selectivity ratio [5] was 7.42 and the selectivity ratio [6] was 28.8. It also gave a selectivity ratio [7] of 12.1.
`COCCn1c[n+](CC(=O)c2ccc([N+](=O)[O-])cc2)c2c1C(=O)c1ccccc1C2=O` showed an IC50 [1] of 18.9 µM, an IC50 [2] of 7.8 µM and an IC50 [3] of 2.9 µM. For the same molecule, the IC50 [4] was 41.3 µM, the selectivity ratio [5] was 2.19 and the selectivity ratio [6] was 5.29. For the same molecule, the selectivity ratio [7] was 14.2.
Molecule `CC(C)Cn1c[n+](CC(=O)c2cccs2)c2c1C(=O)c1ccccc1C2=O.[Br-]` has an IC50 [1] of 0.05 µM, an IC50 [2] of 0.6 µM and an IC50 [3] of 0.21 µM. The IC50 [4] was 12.8 µM, the selectivity ratio [5] was 256 and the selectivity ratio [6] was 21.3. For the same molecule, the selectivity ratio [7] was 61, the viability at 0.02 µM [8] was 47.6% and the Activity [9] was 46%. The Activity [10] was 6.12%, the Activity [11] was 0.33% and the viability at 0.1 µM [12] was 26%. It also gave an Activity [13] of 69.2%, an Activity [14] of 4.44% and an Activity [15] of 0.42%. The viability at 0.2 µM [16] was 7.84%, the Activity [17] was 83.4% and the Activity [18] was 7.77%. For the same molecule, the Activity [19] was 0.98%, the Activity [20] was 56.6% and the Activity [21] was 30.1%. For the same molecule, the Activity [22] was 13.1%, the Activity [23] was 52.5% and the Activity [24] was 35.6%. It also gave an Activity [25] of 11.4%, an Activity [26] of 46.2% and an Activity [27] of 43.7%. The Activity [28] was 10%, the Activity [29] was “Active” and the Activity [30] was “Active”.
Work on `O=C(C[n+]1cn(C2CC2)c2c1C(=O)c1ccccc1C2=O)c1ccc([N+](=O)[O-])cc1` yielded an IC50 [1] of 60.4 µM, an IC50 [2] of 22.2 µM and an IC50 [3] of 12.3 µM. The IC50 [4] was 6.1 µM, the selectivity ratio [5] was 0.1 and the selectivity ratio [6] was 0.27. It also gave a selectivity ratio [7] of 0.5.
With `CC(C)Cn1c[n+](CC(=O)c2ccccc2)c2c1C(=O)c1ccccc1C2=O` the IC50 [1] was 0.52 µM, the IC50 [2] was 0.9 µM and the IC50 [3] was 0.32 µM. The IC50 [4] was 2.7 µM, the selectivity ratio [5] was 5.19 and the selectivity ratio [6] was 3. For the same molecule, the selectivity ratio [7] was 8.44.
With `CC(C)Cn1c[n+](CC(=O)C(C)(C)C)c2c1C(=O)c1ccccc1C2=O` the IC50 [1] was 10.4 µM, the IC50 [2] was 9.4 µM and the IC50 [3] was 3.3 µM. For the same molecule, the IC50 [4] was 10.4 µM, the selectivity ratio [5] was 1 and the selectivity ratio [6] was 1.11. For the same molecule, the selectivity ratio [7] was 3.15.
`CC(C)Cn1c[n+](CC(=O)c2cccc([N+](=O)[O-])c2)c2c1C(=O)c1ccccc1C2=O` gave an IC50 [1] of 2.8 µM, an IC50 [2] of 4.2 µM and an IC50 [3] of 2.9 µM. For the same molecule, the IC50 [4] was 16.2 µM, the selectivity ratio [5] was 5.79 and the selectivity ratio [6] was 3.86. The selectivity ratio [7] was 5.59.
For `CC(C)c1cccc(C(C)C)c1-n1c[n+](CC(=O)c2ccc([N+](=O)[O-])cc2)c2c1C(=O)c1ccccc1C2=O`, the IC50 [1] was 47.9 µM, the IC50 [2] was > 100 µM and the IC50 [3] was 26.7 µM. The IC50 [4] was 46.5 µM, the selectivity ratio [5] was 0.97 and the selectivity ratio [6] was < 0.47. For the same molecule, the selectivity ratio [7] was 1.74.
